Results published in paper PMC12299506, “Flipping the Target: Evaluating Natural LDHA Inhibitors for Selective LDHB Modulation” (Molecules, 2025).

How the values were obtained:
LDHA [1] = conditions: cited from earlier work
LDHC = conditions: cited from earlier work
LDHB [2] = molecular target: T1, LDHB (Homo sapiens, UniProt P07195); assay: LDHB activity assay, 96-well endpoint colorimetric (lactate to pyruvate, NADH/NBT/PMS formazan, 570 nm); type: biochemical; conditions: for IC50: dose-response, nonlinear regression
T1 construct: purchased R&D Systems (Minneapolis, MN, USA) 9205-HB
Excerpt: This assay is based on the detection of NADH generated during the enzymatic conversion of lactate to pyruvate (via reduction of NAD^+), which subsequently reacts with nitro blue tetrazolium (NBT) in the presence of phenazine methosulfate (PMS). This reaction produces a blue-purple formazan dye with a maximum absorbance at approximately 570 nm.
Unless otherwise specified, all chemicals were obtained from Sigma-Aldrich (St. Louis, MO, USA). Recombinant human LDHB (Catalog #: 9205-HB) was purchased from R&D Systems (Minneapolis, MN, USA). […] AXKO-0046 (Catalog #: HY-147216A) was obtained from MedChemExpress (Monmouth Junction, NJ, USA).
This assay quantifies LDHB activity by measuring NADH generation resulting from the conversion of lactate to pyruvate, a reaction catalyzed by LDHB. The produced NADH reacts with nitro blue tetrazolium (NBT) in the presence of phenazine methosulfate (PMS), generating a blue-purple formazan dye detectable at approximately 570 nm.
The reaction was performed in a buffer containing 50 mM CHES (pH 9.6), 150 mM NaCl, 300 μM NBT, 30 μM PMS, and 0.13% gelatin (used to prevent formazan precipitation). Each well was loaded with 90 μL of the reaction buffer followed by 25 μL of a substrate solution comprising 10 mM NAD^+ and 250 mM sodium lactate in the same buffer. Next, 5 μL of the test compound at varying concentrations was added; the buffer alone was used in the control wells. The plates were incubated for 30 s at 25 °C in the dark before measuring the initial absorbance at 570 nm (Ainitial) using a microplate reader (PerkinElmer, Waltham, MA, USA). The reaction was initiated by adding 2 μL of 7.5 μM LDHB. After a 5 min incubation with continuous shaking, a second absorbance measurement (Afinal) was taken.
The difference in absorbance (ΔA570 = Afinal − Ainitial) was used to calculate the amount of NADH produced by referencing a standard curve (0–15 nmol NADH). Readings were corrected for background using a blank lacking LDHB. One unit of enzyme activity was defined as the amount of enzyme producing 1 μmol of NADH per minute at 25 °C. LDHB activity (mU/mL) was calculated using the following Equation (1):(1) LDH activity(mU/mL)=[NADH](nmol)/Tfinal−Tinitial(min)×V(mL)=nmol/min×mL where [NADH] is the amount (in nmol) of NADH that is released between Tfinal and Tinitial, and V is the sample volume (LDHB in mL) added in each well of the 96-well plate.
IC50 values for each compound were calculated using GraphPad Prism v8.0.2 (GraphPad Software Inc., San Diego, CA, USA) by fitting dose–response curves to the enzymatic activity data via nonlinear regression analysis. All the measurements were performed in triplicate.

LDHB [3] = molecular target: T1, LDHB; assay: LDHB kinetic studies (substrate competition, Michaelis-Menten, mixed-model inhibition); type: biochemical; conditions: for mechanism of LDHB inhibition: Michaelis-Menten analysis, vs lactate and NAD+; for Vmax, NAD+: NAD+ varied, 25 mM sodium lactate; for Vmax, lactate: lactate varied, NAD+ 1 mM; for Ki / α (alpha factor, mechanism of inhibition): mixed-model inhibition fit; for α (alpha factor, mechanism of inhibition): α < 1 uncompetitive
Protocol: These kinetic studies followed the classical Michaelis–Menten framework. For NAD^+ titration, assays were performed using eight NAD^+ concentrations (120, 240, 360, 480, 700, 900, 1000, and 1200 μM) in the presence of 25 mM sodium lactate. For lactate titration, eight lactate concentrations (2.5, 5, 10, 15, 20, 25, 37.5, and 50 mM) were evaluated with a fixed NAD^+ concentration of 1 mM. Each reaction was carried out with 2.5 nM LDHB and increasing concentrations of either inhibitor (5–100 μM), followed by incubation at room temperature for 6.5 min. Initial reaction velocities were determined and fitted to a nonlinear Michaelis–Menten model to extract apparent kinetic parameters (Km and Vmax) using GraphPad Prism v8.0.2 (GraphPad Software Inc., San Diego, CA, USA). Lineweaver–Burk plots (1/V vs. 1/[S]) were also generated to visualize shifts in enzyme kinetics. To complement these analyses, the data were further examined using a mixed-model inhibition approach within GraphPad Prism. This model, which avoids the distortions associated with reciprocal transformations, evaluates inhibition kinetics using polynomial regression and is governed by the following equations [70]. The mixed-model fit is described by Equations (2)–(4), and contains competitive, uncompetitive, and noncompetitive inhibition terms:(2) Vmaxapp=Vmax/(1+I/a·Ki) (3) Kmapp=Km·(1+I/Ki)/(1+I/a·Ki) (4) Y=Vmaxapp·X/(Kmapp+X)
In the above equations, Vmaxapp and Kmapp are the maximum enzyme activity and Michaelis–Menten constant, respectively, in the presence of an inhibitor; Vmax and Km represent the maximum enzyme velocity and Michaelis–Menten constant, respectively, in the absence of an inhibitor; and Ki is the inhibition constant. In addition, X is the substrate concentration, Y is the enzyme activity, I is the inhibitor concentration, and alpha (α) is a coefficient that defines the mechanism of inhibition.

LDHB [4] = molecular target: T1, LDHB; assay: Effect of pre-incubation time on LDHB inhibition; type: biochemical; conditions: pre-incubation with LDHB for 120 min, compound 50 µM
Protocol: Supplementary Figure S2. The eﬀect of pre-incubation time on the inhibitory activity of […]
Each compound (50 µΜ) was incubated with […] of LDHB in a 10 µL reaction within a 96-well plate for varying times. The reaction was carried out in 80 µL of 50 mM CHES buﬀer (pH 9.6) containing 150 mM NaCl, 300 µΜ NBT, 30 µΜ PMS, and 0.13% gelatin, with 10 µL of substrate mix (10 mM NAD+ and 250 mM sodium lactate) added to initiate the reaction. LDHB activity was measured as described in the text, with control wells lacking inhibitors. Statistical signiﬁcance was determined using one way ANONA (p < 0.05), with ʹn.s.ʹ indicating non- […]
(1 picture or pasted object on this page, not shown here)

LDHA [5] = tested on: LDHA; design: method as in PMID 34571279; conditions: EMMA; cited from earlier work
LDHA [6] = tested on: LDHA; design: method as in PMID 39054614; conditions: enzymatic assays; cited from earlier work

T1 sequence (P07195 whole entry): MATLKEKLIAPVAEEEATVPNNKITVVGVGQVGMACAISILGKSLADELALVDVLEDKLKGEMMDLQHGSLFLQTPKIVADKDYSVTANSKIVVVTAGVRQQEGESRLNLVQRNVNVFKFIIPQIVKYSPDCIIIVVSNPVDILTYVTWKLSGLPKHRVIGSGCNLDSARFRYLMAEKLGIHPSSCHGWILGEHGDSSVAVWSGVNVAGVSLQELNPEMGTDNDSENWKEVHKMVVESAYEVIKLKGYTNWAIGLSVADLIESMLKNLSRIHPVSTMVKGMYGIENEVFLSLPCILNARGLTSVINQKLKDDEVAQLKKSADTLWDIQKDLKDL

SMILES	inhibition at 50 µM (LDHB [2]; compound at 50 µM)	IC50 (LDHB [2])	mechanism of LDHB inhibition (LDHB [3])	Vmax, NAD+ (LDHB [3]; inhibitor 10 μM)	Vmax, NAD+ (LDHB [3]; inhibitor 20 μM)	Vmax, NAD+ (LDHB [3]; inhibitor 30 μM)	Vmax, NAD+ (LDHB [3]; inhibitor 40 μM)	Vmax, NAD+ (LDHB [3]; inhibitor 50 μM)	Vmax, NAD+ (LDHB [3]; inhibitor 75 μM)	Vmax, NAD+ (LDHB [3]; inhibitor 100 μM)	Vmax, lactate (LDHB [3]; inhibitor 10 μM)	Vmax, lactate (LDHB [3]; inhibitor 20 μM)	Vmax, lactate (LDHB [3]; inhibitor 30 μM)	Vmax, lactate (LDHB [3]; inhibitor 40 μM)	Vmax, lactate (LDHB [3]; inhibitor 50 μM)	Vmax, lactate (LDHB [3]; inhibitor 75 μM)	Vmax, lactate (LDHB [3]; inhibitor 100 μM)	Ki (LDHB [3]; with NAD+)	inhibition rate of LDHA activity (LDHA [5])	IC50 (LDHA [6])	other results
Cc1cc2c(C(C)C)c(O)c(O)c(C=O)c2c(O)c1-c1c(C)cc2c(C(C)C)c(O)c(O)c(C=O)c2c1O [gossypol, Gossypol]	–	–	–	–	–	–	–	–	–	–	–	–	–	–	–	–	–	–	–	–	Ki (LDHA [1]): 1.9 µM; Ki (LDHC): 4.2 µM
O=c1cc(-c2ccc(O)c(O)c2)oc2cc(O)cc(O)c12 [Luteolin]	~55%	32.2 µM	uncompetitive inhibition	945 ± 27 mU/mL	868 ± 35 mU/mL	774 ± 32 mU/mL	664 ± 40 mU/mL	563 ± 29 mU/mL	456 ± 27 mU/mL	417 ± 22 mU/mL	942 ± 31 mU/mL	888 ± 16 mU/mL	832 ± 21 mU/mL	749.2 ± 17 mU/mL	624 ± 24 mU/mL	506 ± 15 mU/mL	406 ± 22 mU/mL	194 µM	50.7%	1.79 µM	α (alpha factor, mechanism of inhibition) (LDHB [3]; with NAD+): 0.34; Ki (LDHB [3]; with lactate): 349 µM; α (alpha factor, mechanism of inhibition) (LDHB [3]; with lactate): 0.21; change of inhibitory effect with longer pre-incubation time (LDHB [4]): did not increase
c1ccc(CNCCc2c(CNC3CCCCCC3)[nH]c3ccccc23)cc1 [AXKO-0046, reference compound]	~75%	0.00556 µM	–	–	–	–	–	–	–	–	–	–	–	–	–	–	–	–	–	–	–
O=c1c(O)c(-c2ccc(O)c(O)c2)oc2cc(O)ccc12 [Fisetin]	~22%	–	–	–	–	–	–	–	–	–	–	–	–	–	–	–	–	–	–	0.066 µM	–
O=c1c(O)c(-c2ccc(O)c(O)c2)oc2cc(O)cc(O)c12 [Quercetin]	~50%	37.7 µM	uncompetitive inhibition	952 ± 36 mU/mL	861 ± 22 mU/mL	761 ± 52 mU/mL	701 ± 44 mU/mL	605 ± 46 mU/mL	504 ± 44 mU/mL	454 ± 33 mU/mL	938 ± 29 mU/mL	881 ± 19 mU/mL	791 ± 37 mU/mL	689 ± 53 mU/mL	621 ± 23 mU/mL	557 ± 37 mU/mL	478 ± 26 mU/mL	539 µM	53.6%	33.6 µM	α (alpha factor, mechanism of inhibition) (LDHB [3]; with NAD+): 0.14; Ki (LDHB [3]; with lactate): 265 µM; α (alpha factor, mechanism of inhibition) (LDHB [3]; with lactate): 0.31; change of inhibitory effect with longer pre-incubation time (LDHB [4]): did not increase
CC[C@@]1(O)C(=O)OCc2c1cc1n(c2=O)Cc2cc3ccccc3nc2-1 [Camptothecin]	–	–	–	–	–	–	–	–	–	–	–	–	–	–	–	–	–	–	no inhibitory effect	–	inhibition of LDHB activity (LDHB [2]; compound at 50 µM): minimal inhibition
